Results reported in patent US20050180954A1, “Drug for treating bone disorders” (priority 1995, published 2005).

Key:
[1] = test system: ovariectomized mice of ddy strain; test: Osteoporosis model mice: urinary D-Pyr (bone resorption marker); format: in vivo, mouse; settings: for amount of excreted urinary D-Pyr compensated with urinary creatinine: ovariectomized mice, Week 4
Method: (§1) Female mice of ddy strain of 8 weeks old were divided into 5 groups and experiment was carried out. Bilateral ovariectomy was performed on the mice in 3 groups and sham operation alone was performed on the mice in 2 groups. Thereafter, the mice were raised with normal diet for 1 month, thereby making the state of osteoporosis in the ovariectomized groups. In this model, it is known that the mice become the state of osteoporosis 2 to 3 weeks after the ovariectomy (T. Hosaka et al., ANITEX, Vol. 5, 243, 1992; Miyaura, C. et al., J. Bone Mineral Res., 10, 1365, 1995). From the third weeks from the ovariectomy, murine IFN was subcutaneously administered (100 μl/head/time) once per day, totally 25 times. On Day 30 from the beginning of administration, under ether anesthesia, body weight was measured, blood was collected, and femur was collected and dry bone weight thereof was measured for each mouse.
Drying of femur was performed as follows. That is, femur was fixed with 2 ml of 70% ethanol per one taken out femur at room temperature for 24 hours and then the attached muscles and connective tissues were carefully removed with a forceps and surgical knife with replaceable blade. After immersing the femur in fresh 70% ethanol for 72 hours at room temperature, the femur was dried in a hot wind-generating incubator (Koukensha Engineering. Co., Tokyo) at 55° C. for 24 hours. The weight of the dried bone was measured with an electronic force balance (Mettler AE50, Metteler Instrumente AG, Switzerland). Murine IFN to be administered was diluted to the desired concentration with physiological saline. During the test, urine of mice was collected with metabolic cage (KN-645, Natsumeseisakusho, Tokyo) and frozen to store. To one group subjected to the sham operation, physiological saline (Otsuka Pharmaceutical Co.) was administered, and to another group subjected to the sham operation, murine IFNβ was administered at a dose of 10^5 units/head/time (diluted with physiological saline when use). […]

[2] = Osteoporosis model mice: change in body weight; format: in vivo, mouse; settings: administration continuously for 4 weeks at a dose exhibiting the therapeutic effect
Method: as §1
It is well-known that the increase and decrease in the amount of urinary D-Pyr excreted in urine, which is a crosslinked substance of bone collagen, is an excellent marker reflecting the degree of degradation of bone collagen, that is, the degree of bone resorption (C. P. Jerome et al., Bone and Mineral, 19, 117-125, 1992). For measurement of urinary D-Pyr, a commercially available kit (PYRILINKS-D Assay, METRA BIOSYSTEMS) was used. […]

## MuIFNβ: murine interferon β, Lot M-0034, prepared by Toray Industries, Inc. by genetic engineering technique
[1]; 10^3 units/head/time
  amount of excreted urinary D-Pyr compensated with urinary creatinine: inhibition of bone resorption was observed
[1]; 10^5 units/head/time
  amount of excreted urinary D-Pyr compensated with urinary creatinine: inhibition of bone resorption was observed
[1]; sham operation groups
  inhibition of excretion of urinary deoxypyridinoline: is exhibited also in the sham operation groups
[2]
  change in body weight: no problematic change in body weight was observed in any group
